# Biological target: T1, acetylcholinesterase enzyme (from electric eel) (Electrophorus electricus, UniProt O42275)
# T1 construct: gene ache; commercial enzyme from electric eel (Sigma-Aldrich), native source; no construct or oligomer details printed
# Assay: modified Ellman assay, absorbance at […] nm
# Format: biochemical
# T1 sequence (O42275 24-633): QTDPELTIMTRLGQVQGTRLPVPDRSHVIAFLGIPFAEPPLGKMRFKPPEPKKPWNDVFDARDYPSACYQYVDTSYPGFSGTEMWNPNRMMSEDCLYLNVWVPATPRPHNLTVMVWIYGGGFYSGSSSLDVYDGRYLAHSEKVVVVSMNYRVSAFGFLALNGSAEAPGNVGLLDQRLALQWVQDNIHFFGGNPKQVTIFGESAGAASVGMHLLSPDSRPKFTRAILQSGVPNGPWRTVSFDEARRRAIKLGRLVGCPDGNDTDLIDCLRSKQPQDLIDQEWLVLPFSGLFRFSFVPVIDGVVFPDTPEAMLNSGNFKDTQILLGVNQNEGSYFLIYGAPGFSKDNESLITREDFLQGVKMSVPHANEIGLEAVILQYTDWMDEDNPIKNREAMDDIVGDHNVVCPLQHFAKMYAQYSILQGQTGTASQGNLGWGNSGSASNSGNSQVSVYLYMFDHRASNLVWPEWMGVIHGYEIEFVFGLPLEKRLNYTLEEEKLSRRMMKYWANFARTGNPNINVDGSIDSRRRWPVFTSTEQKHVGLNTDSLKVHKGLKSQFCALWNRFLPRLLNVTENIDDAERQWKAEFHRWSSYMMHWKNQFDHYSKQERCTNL
structure (smiles),measurement,value
COc1cc(C=O)ccc1O [Vanillin],IC50,33 µM
